According to paper PMC5556019, “Targeting Apolipoprotein E/Amyloid β Binding by Peptoid CPO_Aβ17-21 P Ameliorates Alzheimer’s Disease Related Pathology and Cognitive Decline” (Scientific Reports, 2017):
pIC50: −log10 of the molar value. Numbered stars: 1 amine (or outer) side, 2 acyl side, 3 side chain; on linkers, the order of the positions; unused ones are H or OH. Bridge positions count the residues as written; N and C are the ends. Square brackets hold non-standard residues; d marks the D form. Peptide text beside a SMILES is read from it. ξ: configuration not given here. N(CH2CH2CO)Gly = O=C(CN(CCC(=O)[*:3])[*:1])[*:2]; Nphe = O=C(O)CNCc1ccccc1; Nleu = CC(C)CNCC(=O)O; ξP = O=C(O)C1CCCN1; Sar = CNCC(=O)O

Legend:
apoE4/Aβ42 binding = molecular target: T1, apoE4/Aβ42 binding (Homo sapiens, UniProt P02649, C130R); test: Surface plasmon resonance assay of apoE4/Aβ42 binding inhibition
T1 construct: purchased BioVision (Milpitas, CA)
T1 sequence (P02649 19-317 C130R): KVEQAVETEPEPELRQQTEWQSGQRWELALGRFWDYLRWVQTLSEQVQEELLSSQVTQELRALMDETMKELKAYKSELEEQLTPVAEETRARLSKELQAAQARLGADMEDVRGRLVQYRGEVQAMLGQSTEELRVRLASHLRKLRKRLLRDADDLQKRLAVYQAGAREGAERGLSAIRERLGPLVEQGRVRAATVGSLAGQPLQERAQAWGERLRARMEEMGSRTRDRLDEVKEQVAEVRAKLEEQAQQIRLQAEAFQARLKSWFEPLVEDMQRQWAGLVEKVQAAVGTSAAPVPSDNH
Procedure: Experiments were performed using a Reichert SR7000DC refractometer system (Reichert, New York) equipped with a CM5 sensor chip. Acetate buffer was used for immobilization of the peptide Aβ42 (ligand). […] Importantly, Aβ42 species are considered critical for seeding of amyloid deposits, [32]. CM-dextran on a CM5 gold sensor chip was activated by injecting a solution of 10 mg/mL N-Hydroxysuccinimide (NHS) and 40 mg/mL 1-Ethyl-3-(3-dimethylaminopropyl) carbodiimide (EDC) over the sensor chip surface for 7 min at a flow rate of 20 µL/min. Then the ligand, 50 µg/mL HFIP treated synthetic peptide Aβ42 in 10 mM sodium acetate, pH 4.5, was immobilized by injection over the surface for 20 min. The unreacted sites on the sensor chip surface were blocked by injection of 1 M ethanolamine, pH 8.5 for 10 min. […] After each binding cycle the surface was regenerated by a short, fast injection of 10 mM hydrochloric acid. To verify results analytes containing lipidated human apoE4 molecules or lipidated human apoE3 molecules incubated with peptoid inhibitors in phosphate buffered saline with 0.05% TWEEN 20, pH 7.4 (PBST) were tested and the association and dissociation reactions were monitored.

[1] = system: apoE4 mediated Aβ40 aggregation; test: Thioflavin T assay of apoE4 mediated Aβ40 aggregation; assay type: biochemical, human
Procedure: Peptide Aβ42 or peptoid CPO_Aβ17-21 P were incubated alone at a concentration of 100 µM over a period of 7–10 days at 37 °C in 100 mM Tris buffer (pH 7.4). […] In aggregation inhibition experiments, apoE4 was pre-incubated with CPO_Aβ17-21 P in a molar ratio of 1:2 for 6 hrs at 37 °C followed by addition to freshly reconstituted Aβ42 on ice (molar ratio 100:1:2, Aβ42:apoE4:peptoid). As a control, Aβ42 was also incubated with CPO_Aβ17-21 P at a molar ratio of 100:2. For peptide Aβ40 all the experiments were conducted under the same conditions as Aβ42 except the peptide concentration was 400 µM. The molar ratio of Aβ40:apoE4:CPO_Aβ17-21 P was 100:1:2. (400 µM Aβ40:4 µM apoE4:8 µM CPO_Aβ17-21 P). Fibril formation by the different peptides at various time points was evaluated by a standard Thioflavin-T assay according to previously published protocols, [33].The samples were diluted in buffer containing 50 mM glycine, 2 µM Thioflavin T pH 9.2, and read on a Molecular Devices SpectraMax M2 spectrophotometer (Sunnyvale, CA) at excitation and emission wavelengths 440 and 482 nm.

APP/PS1 Tg mice = test: Cognitive tests (radial arm maze, object recognition); assay type: in vivo; settings: 0.2 mg per mouse i.p. twice weekly for 4 months
Procedure: The effect of CPO_Aβ17-21 P on Aβ deposition was tested in APP/PS1 Tg mice with plaque pathology. This AD mouse model develops plaque pathology from the age of 3 months. Animals were divided into two groups and received intraperitoneally (i.p.) injections of 0.2 mg of CPO_ Aβ17–21 P per mouse in sterile saline (n = 11, 5 male, 6 female) or saline alone (n = 10, 5 male, 5 female) as a control twice weekly for 4 months, beginning at age 3 months. During the treatment, veterinary staff monitored animals for any signs of toxicity, such as changes in body weight, physical appearance, and altered behavior. Animals were sacrificed a week after administration of the last treatment dose and behavioral testing. All mouse care and experimental procedures were compliant with guidelines of animal experimentation and were approved by the Institutional Animal Care and Use Committee at the New York University School of Medicine. […]
Spatial learning (working memory) was tested using a radial arm maze with eight radial 30-cm-long arms originating from the central space. […] The number of errors (entry into previously visited arms) was recorded during each session.
The spontaneous object recognition test measures short-term memory. […] The amount of time spent exploring each object within a defined zone of the area was automatically recorded by a tracking system (San Diego Instruments, San Diego, CA).

SMILES: CC(C)CN1CC(=O)N2CCCC2C(=O)N(Cc2ccccc2)CC(=O)N(Cc2ccccc2)CC(=O)N(C)CC(=O)N(CC(N)=O)CCC1=O (centres unmarked) [CPO_Aβ17-21 P] ([Nleu][ξP][Nphe][Nphe][Sar][N(CH2CH2CO)Gly]-NH2; lactam N-6)
- inhibition of apoE4/Aβ42 binding (apoE4/Aβ42 binding; SPR, 2:1 molar ratio (peptoid:apoE4)): 50%
- inhibition of apoE4/Aβ42 binding (apoE4/Aβ42 binding; SPR, 8:1 molar ratio (peptoid:apoE4)): near complete inhibition
- inhibition of apoE4/Aβ42 binding (library screen) (apoE4/Aβ42 binding; SPR, immobilised Aβ42, recombinant human apoE4 pre-incubated with peptoid, PBST pH 7.4): inhibited apoE4/Aβ42 binding
- pIC50 (apoE4/Aβ42 binding; one-site competition nonlinear regression, Fig. 1d legend: lipidated apoE/Aβ binding, read-out: half-maximal inhibition (IC50) of apoE/Aβ binding): 8.99
- inhibition of apoE4 mediated Aβ40 aggregation ([1]; 400 µM Aβ40:4 µM apoE4:8 µM peptoid, apoE4 pre-incubated with peptoid 6 hrs 37 °C, p = 0.0034): significant inhibition
- Aβ40 fibril formation with peptoid versus Aβ40 alone ([1]; Aβ40 + peptoid without apoE4, molar ratio 100:2): no significant difference
- radial arm maze, number of errors (APP/PS1 Tg mice; p < 0.01 two-way ANOVA treatment effect): significant cognitive improvement
- novel object recognition (APP/PS1 Tg mice; p = 0.016): significant cognitive improvement
